Source: PMC6298744 (Biochemical pharmacology, 2018)

Columns and labels:
5-HT2A receptor [1] = target: T1, 5-HT2A receptor (Homo sapiens, UniProt P28223); experiment: biochemical; format: binding
human 5-HT1A receptor = target: T2, human 5-HT1A receptor (Homo sapiens, UniProt P08908); experiment: 5-HT1A receptor [^35S]GTPγS binding stimulation; format: biochemical
T2 sequence (P08908 1-422): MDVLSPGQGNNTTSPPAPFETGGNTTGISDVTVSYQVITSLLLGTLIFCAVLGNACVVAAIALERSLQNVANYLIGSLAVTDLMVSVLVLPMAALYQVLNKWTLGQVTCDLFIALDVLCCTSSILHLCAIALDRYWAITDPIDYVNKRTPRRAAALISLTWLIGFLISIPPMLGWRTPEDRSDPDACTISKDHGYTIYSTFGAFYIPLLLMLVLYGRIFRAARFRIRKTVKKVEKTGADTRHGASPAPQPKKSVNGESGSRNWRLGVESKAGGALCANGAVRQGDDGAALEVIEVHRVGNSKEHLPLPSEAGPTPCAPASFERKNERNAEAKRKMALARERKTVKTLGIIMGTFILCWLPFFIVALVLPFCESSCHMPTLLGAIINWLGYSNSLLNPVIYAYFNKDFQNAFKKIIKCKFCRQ

5-HT2A receptor [2] = target: T1, 5-HT2A receptor; experiment: cell-based; format: cell-based
5-HT2B receptor [3] = target: T3, 5-HT2B receptor (Homo sapiens, UniProt P41595); experiment: 5-HT2B receptor inositol monophosphate; format: cell-based
5-HT2C receptor [4] = target: T4, 5-HT2C receptor (Homo sapiens, UniProt P28335); experiment: cell-based
T4 sequence (P28335 33-458): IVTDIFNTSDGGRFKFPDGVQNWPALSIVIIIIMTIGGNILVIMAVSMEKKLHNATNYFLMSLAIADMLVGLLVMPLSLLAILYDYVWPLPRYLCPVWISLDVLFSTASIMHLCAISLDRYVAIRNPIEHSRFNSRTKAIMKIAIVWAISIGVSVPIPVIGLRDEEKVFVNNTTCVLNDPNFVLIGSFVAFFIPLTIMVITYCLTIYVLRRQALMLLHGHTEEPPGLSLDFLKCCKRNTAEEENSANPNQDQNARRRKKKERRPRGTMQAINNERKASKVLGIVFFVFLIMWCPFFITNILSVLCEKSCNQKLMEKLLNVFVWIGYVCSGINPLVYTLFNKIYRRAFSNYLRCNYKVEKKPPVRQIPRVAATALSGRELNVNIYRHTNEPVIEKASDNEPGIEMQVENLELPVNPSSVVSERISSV

hDAT [5] = target: T5, hDAT (Homo sapiens, UniProt Q01959); experiment: Inhibition of [^125I]RTI-55 binding to hDAT
hSERT [6] = target: T6, hSERT (Homo sapiens, UniProt P31645); experiment: Inhibition of [^125I]RTI-55 binding to hSERT
hNET [7] = target: T7, hNET (Homo sapiens, UniProt P23975); experiment: biochemical; format: binding
hDAT [8] = target: T5, hDAT; experiment: Inhibition of [^3H]DA uptake by HEK-hDAT cells; format: cell-based
hSERT [9] = target: T6, hSERT; experiment: Inhibition of [^3H]5-HT uptake by HEK-hSERT cells; format: cell-based
hNET [10] = target: T7, hNET; experiment: cell-based
hDAT [11] = target: T5, hDAT; experiment: Release of preloaded [^3H]DA from HEK-hDAT cells; format: cell-based
hSERT [12] = target: T6, hSERT; experiment: Release of preloaded [^3H]5-HT from HEK-hSERT cells; format: cell-based
hNET [13] = target: T7, hNET; experiment: Release of preloaded [^3H]NE from HEK-hNET cells; format: cell-based
[14] = taken hours after ingestion; cited from earlier work
5-HT2B receptor [15] = target: T3, 5-HT2B receptor; experiment: 5-HT2B receptor [^3H]5-HT binding
[16] = Human blood concentrations after ingestion; details: converted from cited ng/ml values
[17] = cited from earlier work
5-HT2C receptor [18] = target: T4, 5-HT2C receptor; details: read-out: affinity of [^125I]DOI binding sites, h5-HT2C; HEK-5-HT2C; radioligand affinity
hDAT [19] = target: T5, hDAT; details: read-out: affinity of [^125I]RTI-55 binding sites, DAT; HEK-hDAT; cited from earlier work
hNET [20] = target: T7, hNET; details: read-out: affinity of [^125I]RTI-55 binding sites, NET; HEK-hNET; cited from earlier work

T7 sequence (P23975 whole entry): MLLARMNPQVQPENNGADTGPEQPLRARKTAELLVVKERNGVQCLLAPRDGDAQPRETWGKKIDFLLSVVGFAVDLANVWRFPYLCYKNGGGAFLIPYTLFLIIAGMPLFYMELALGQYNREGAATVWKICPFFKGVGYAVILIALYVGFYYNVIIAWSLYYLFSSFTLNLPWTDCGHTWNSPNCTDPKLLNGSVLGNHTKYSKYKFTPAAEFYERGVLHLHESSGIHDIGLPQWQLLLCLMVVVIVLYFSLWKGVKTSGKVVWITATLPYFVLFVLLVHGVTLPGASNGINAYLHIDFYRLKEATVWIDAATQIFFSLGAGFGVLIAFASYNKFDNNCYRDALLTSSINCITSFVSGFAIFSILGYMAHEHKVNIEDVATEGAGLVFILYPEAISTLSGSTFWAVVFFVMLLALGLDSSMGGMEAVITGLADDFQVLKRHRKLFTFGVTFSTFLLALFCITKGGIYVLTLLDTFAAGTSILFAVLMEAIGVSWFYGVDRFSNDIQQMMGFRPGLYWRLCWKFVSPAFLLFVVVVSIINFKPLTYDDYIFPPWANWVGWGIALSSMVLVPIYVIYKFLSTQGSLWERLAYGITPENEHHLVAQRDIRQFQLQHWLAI
T6 sequence (P31645 whole entry): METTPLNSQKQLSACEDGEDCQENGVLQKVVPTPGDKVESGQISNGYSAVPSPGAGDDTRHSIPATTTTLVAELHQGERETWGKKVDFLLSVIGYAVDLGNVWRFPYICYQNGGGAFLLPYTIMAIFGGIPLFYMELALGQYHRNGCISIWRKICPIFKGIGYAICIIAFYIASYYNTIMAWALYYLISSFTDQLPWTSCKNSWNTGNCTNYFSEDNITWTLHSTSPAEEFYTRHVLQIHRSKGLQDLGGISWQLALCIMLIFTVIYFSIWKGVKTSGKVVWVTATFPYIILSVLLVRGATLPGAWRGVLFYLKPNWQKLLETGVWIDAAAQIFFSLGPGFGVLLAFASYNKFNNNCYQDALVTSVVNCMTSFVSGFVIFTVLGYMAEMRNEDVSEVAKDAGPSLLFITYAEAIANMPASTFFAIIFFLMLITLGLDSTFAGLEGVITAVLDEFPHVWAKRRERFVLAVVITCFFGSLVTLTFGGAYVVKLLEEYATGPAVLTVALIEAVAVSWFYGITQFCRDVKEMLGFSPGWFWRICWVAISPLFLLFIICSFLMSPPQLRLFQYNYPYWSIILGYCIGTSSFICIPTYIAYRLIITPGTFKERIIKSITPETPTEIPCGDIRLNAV
T5 sequence (Q01959 whole entry): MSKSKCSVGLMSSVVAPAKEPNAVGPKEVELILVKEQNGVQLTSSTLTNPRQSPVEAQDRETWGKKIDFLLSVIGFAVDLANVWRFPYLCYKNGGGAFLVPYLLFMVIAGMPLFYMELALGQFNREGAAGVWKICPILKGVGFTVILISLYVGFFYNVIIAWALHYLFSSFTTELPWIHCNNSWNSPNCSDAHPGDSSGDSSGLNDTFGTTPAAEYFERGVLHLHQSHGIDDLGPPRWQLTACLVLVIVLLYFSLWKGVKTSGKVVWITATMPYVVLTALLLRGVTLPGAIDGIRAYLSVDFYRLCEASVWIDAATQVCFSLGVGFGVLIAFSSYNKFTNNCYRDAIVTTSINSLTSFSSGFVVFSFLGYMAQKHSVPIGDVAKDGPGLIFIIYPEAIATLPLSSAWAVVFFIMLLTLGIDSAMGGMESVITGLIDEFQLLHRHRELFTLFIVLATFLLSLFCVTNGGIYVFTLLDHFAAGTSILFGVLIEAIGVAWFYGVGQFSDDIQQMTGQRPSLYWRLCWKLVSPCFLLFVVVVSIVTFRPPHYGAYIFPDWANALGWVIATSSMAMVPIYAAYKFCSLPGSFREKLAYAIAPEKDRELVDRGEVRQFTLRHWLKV
T3 sequence (P41595 whole entry): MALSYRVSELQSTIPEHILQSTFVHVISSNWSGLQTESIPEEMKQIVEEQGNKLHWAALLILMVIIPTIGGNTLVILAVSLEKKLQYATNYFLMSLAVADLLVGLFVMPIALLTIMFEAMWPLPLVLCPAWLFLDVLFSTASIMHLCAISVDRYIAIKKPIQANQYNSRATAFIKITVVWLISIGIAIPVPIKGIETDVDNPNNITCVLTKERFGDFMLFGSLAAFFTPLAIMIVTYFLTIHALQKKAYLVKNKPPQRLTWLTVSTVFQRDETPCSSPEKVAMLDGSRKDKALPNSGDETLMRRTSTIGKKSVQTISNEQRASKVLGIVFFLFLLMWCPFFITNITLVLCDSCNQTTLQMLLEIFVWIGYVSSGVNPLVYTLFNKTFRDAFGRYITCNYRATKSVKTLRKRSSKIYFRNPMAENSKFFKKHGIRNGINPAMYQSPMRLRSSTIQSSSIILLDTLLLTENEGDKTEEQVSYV
T1 sequence (P28223 whole entry): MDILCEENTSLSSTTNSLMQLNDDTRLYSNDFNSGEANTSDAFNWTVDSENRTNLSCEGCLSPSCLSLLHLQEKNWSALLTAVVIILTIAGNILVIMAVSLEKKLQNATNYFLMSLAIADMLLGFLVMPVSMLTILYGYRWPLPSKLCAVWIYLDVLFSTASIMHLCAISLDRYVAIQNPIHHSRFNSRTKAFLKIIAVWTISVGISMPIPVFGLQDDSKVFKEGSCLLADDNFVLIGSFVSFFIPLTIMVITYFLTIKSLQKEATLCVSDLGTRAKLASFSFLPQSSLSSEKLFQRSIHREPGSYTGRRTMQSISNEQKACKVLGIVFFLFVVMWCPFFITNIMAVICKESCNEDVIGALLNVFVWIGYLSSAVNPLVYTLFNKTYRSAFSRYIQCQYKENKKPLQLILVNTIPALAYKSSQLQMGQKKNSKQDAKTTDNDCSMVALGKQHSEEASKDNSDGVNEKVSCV

## COc1ccc(OC)c(CCNCc2ccccc2OC)c1 [25H-NBOMe, 2-(2,5-dimethoxyphenyl)-N-(2-methoxybenzyl)ethanamine]
5-HT2A receptor [1]
  Ki: 4.9 ± 1.3 nM
5-HT2A receptor [1]; ratio of Ki values
  Selectivity (binding ratios) 5-HT2A : 5-HT1A: 920
  Selectivity (binding ratios) 5-HT2A : 5-HT2B: 13
  Selectivity (binding ratios) 5-HT2A : 5-HT2C: 3.3
Human 5-HT1A receptor
  EC50: 28400 ± 8600 nM
Human 5-HT1A receptor; read-out: % maximum stimulation, 5-HT1A stimulation of [^35S]GTPγS binding
  Emax: 52%
5-HT2A receptor [2]; EC50, 5-HT2A stimulation of IP-1 formation, mean ± sem
  EC50: 40.7 ± 8.1 nM
5-HT2A receptor [2]; ratio of EC50 values
  Selectivity (functional ratios) 5-HT2A: 5-HT1A: 700
  Selectivity (functional ratios) 5-HT2A: 5-HT2B: 11
  Selectivity (functional ratios) 5-HT2A: 5-HT2C: 0.34
5-HT2A receptor [2]; read-out: % maximum stimulation, 5-HT2A stimulation of IP-1 formation
  Emax: 85.9%
5-HT2B receptor [3]
  EC50: 463 ± 71 nM
5-HT2B receptor [3]; read-out: % maximum stimulation, 5-HT2B stimulation of IP-1 formation
  Emax: 37.7%
5-HT2C receptor [4]
  EC50: 13.8 ± 2.6 nM
5-HT2C receptor [4]; read-out: % maximum stimulation, 5-HT2C stimulation of IP-1 formation
  Emax: 95.5%
hDAT [5]
  Ki: 81400 ± 8900 nM
hSERT [6]
  Ki: 2220 ± 340 nM
hNET [7]
  Ki: 16300 ± 2600 nM
hDAT [8]
  IC50: > 100000 nM
hSERT [9]
  IC50: 2080 ± 310 nM
hNET [10]
  IC50: 3650 ± 880 nM
hDAT [11]
  EC50: > 100000 nM
hDAT [11]; relative to maximum release induced by METH (1–10 μM)
  % maximum release, hDAT [^3H]DA: −0.18 ± 0.26%
hSERT [12]
  EC50: > 100000 nM
hSERT [12]; relative to maximum release induced by METH (0.3–1 mM)
  % maximum release, hSERT [^3H]5-HT: −0.27 ± 0.49%
hNET [13]
  EC50: > 66000 nM
hNET [13]; relative to maximum release induced by METH (0.3–1 μM)
  % maximum release, hNET [^3H]NE: 21 ± 12%
[14]
  Human blood concentration: 0.29 ng/mL
5-HT2B receptor [15]
  Ki: 62.9 ± 7.5 nM
[16]
  blood concentration (molar): ~ 0.9 nM

## COc1cc(CCNCc2ccccc2OC)c(OC)cc1I [25I-NBOMe]
[17]
  Postmortem brain tissue concentration: 2.54 ng/g
  Postmortem peripheral blood concentration: 0.405 ng/mL
[16]
  blood concentration (molar): ~ 8 nM

## COc1cc(CC(C)N)c(OC)cc1I (stereo not drawn) [[^125I]DOI, [^125I]2,5-dimethoxy-4-iodoamphetamine]
5-HT2C receptor [18]
  Kd: 4.18 nM

## COC(=O)[C@H]1[C@@H](c2ccc(I)cc2)CC2CC[C@H]1N2C [[^125I]RTI-55, [^125I]methyl (1R,2S,3S)-3-(4-iodophenyl)-8-methyl-8-azabicyclo[3.2.1]octane-2-carboxylate]
hDAT [19]
  Kd: 1.83 nM
hNET [20]
  Kd: 12.1 nM
